Measurements published in ChEMBL document CHEMBL1921747, “Novel cytotoxic chalcones from Litsea rubescens and Litsea pedunculata” (Bioorg Med Chem Lett, 2011).
≈ marks a conversion by molar mass, not a printed value.

Columns and labels:
[1] = tested on: HL-60; assay: Ratio of cisplatin IC50 to compound IC50 for human HL60 cells; assay type: functional
[2] = tested on: HepG2; assay: Cytotoxicity against human HepG2 cells after 48 hrs by MTT assay; assay type: functional, cell-based; conditions: HepG2, 48 h
[3] = tested on: HL-60; assay: Cytotoxicity against human HL60 cells after 48 hrs by MTT assay; assay type: functional, cell-based; conditions: HL-60, 48 h
[4] = tested on: A-431; assay: Cytotoxicity against human A431 cells after 48 hrs by MTT assay; assay type: functional, cell-based; conditions: A-431, 48 h

Structure (SMILES)	Ratio IC50 [1]	IC50 [2]	IC50 [3]	IC50 [4]
COC1=CC(=O)C2(OC2C)C(O)=C1C(=O)/C=C/c1ccccc1 (configuration not stated) [LITSEAONE A]	2.1	23 µg/mL (≈ 73.6 µM)	6.1 µg/mL (≈ 19.5 µM)	11.1 µg/mL (≈ 35.5 µM)
COc1cc(O)c(C(=O)/C=C/c2ccccc2)c2c1OC(C)O2 (configuration not stated) [LITSEAONE B]	–	21.5 µg/mL (≈ 68.8 µM)	10.2 µg/mL (≈ 32.7 µM)	13.9 µg/mL (≈ 44.5 µM)
